This data set addresses T1, COX-2 (Rattus norvegicus, UniProt P35355).
T1 construct: endogenous COX-2 expression in naïve rats; from tissue; host or cells: brain of living naive rats
T1 sequence (P35355 18-604): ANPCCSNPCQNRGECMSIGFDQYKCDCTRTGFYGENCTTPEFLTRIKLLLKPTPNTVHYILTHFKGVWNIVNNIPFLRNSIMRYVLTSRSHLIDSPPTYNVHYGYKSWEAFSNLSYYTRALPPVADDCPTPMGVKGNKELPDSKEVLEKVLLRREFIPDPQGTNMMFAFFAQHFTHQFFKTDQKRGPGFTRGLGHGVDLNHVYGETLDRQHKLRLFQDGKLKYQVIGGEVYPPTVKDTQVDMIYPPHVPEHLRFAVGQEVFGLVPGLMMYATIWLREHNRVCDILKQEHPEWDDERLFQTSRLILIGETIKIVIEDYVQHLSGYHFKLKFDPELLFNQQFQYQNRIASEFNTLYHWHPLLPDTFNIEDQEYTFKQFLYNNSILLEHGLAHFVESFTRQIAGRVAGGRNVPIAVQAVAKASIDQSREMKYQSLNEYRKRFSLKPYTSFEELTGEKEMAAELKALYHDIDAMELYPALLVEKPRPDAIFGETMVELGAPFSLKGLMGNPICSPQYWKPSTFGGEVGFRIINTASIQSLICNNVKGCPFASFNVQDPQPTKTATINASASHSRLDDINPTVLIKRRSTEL
Put plainly: PET neuroimaging of naïve rats. The following applies: in vivo PET, result in words. How it is done: deepest would be injected and allowed to perfuse for 15 min until all three injections were completed.
In some experimental groups, mannitol was injected intraperitoneally (IP) or co -administered with the […]
After the surgical procedure was completed, animals were given enough time to recover (generally 28 days post-surgery) to facilitate cellular transduction with the AAV as well as subsequent expression of COX -2 and GFP, before subsequent imaging or IHC interrogation was conducted.
Rodent PET/MRI Acquisition
All PET and MRI experimental procedures were acquired on a 4.7 Tesla PET-MRI scanner using a B-GA20S HP gradient coil with a PET Insert Si 198 (Bruker Biospin, Billerica, MA). Custom 3D-printed cradles were used to secure anesthetized animals in the scanner. Rat and mice experimental groups were imaged separately. For rats, one animal was placed head-prone, and the other was placed tail-prone, aligning their heads in the scanner. For rat blocking experiments celecoxib was formulated in 20% ethanol, 30% polyethylene glycol and 50% saline and diluted appropriately to administer 1 mL/kg. For mice, up to six mice were inserted, two head prone and four tail prone. ParaVision 6 (Bruker) was used to acquire MR images, and ParaVision 360 (Bruker) was used to obtain PET images. […]

The record followed here is publication PMC11117721, “A Fast-Binding, Functionally Reversible, COX-2 Radiotracer for CNS PET Imaging” (ACS Central Science, 2024).

On to `[11CH3]S(=O)(=O)c1ccc(-c2cccc(NCc3ccoc3)n2)cc1` [[^11C]BRD1158], for which the brain uptake entry was “rapid and robust brain uptake”.
